ChEMBL document CHEMBL1201862, “PubChem BioAssay data set” (2004)
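Step 1: Grow cells in 96-well plates. Step 2: Expose to compound for 48 hours at 5 concentrations. Step 3: Interpolate endpoints linearly; if unreached, use highest concentration. GI50 is the concentration that inhibits growth by half.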 Activity calls are given as the source filed them. No stated cut-off is given here; in the data, active = GI50 up to about 1.1 µM and inactive = higher.

Key:
Assay in all cases: NCI-60 cell line screen, 48 h
[1] = tested on: 786-0
[2] = tested on: IGROV-1
[3] = tested on: MOLT-4
[4] = tested on: HCT-15
[5] = tested on: EKVX
[6] = tested on: SK-MEL-5
[7] = tested on: UACC-257
[8] = tested on: ACHN
[9] = tested on: MDA-MB-435
[10] = tested on: NCI-H23
[11] = tested on: T47D
[12] = tested on: HOP-92
[13] = tested on: SW-620
[14] = tested on: SF-539
[15] = tested on: NCI-H522
[16] = tested on: CAKI-1
[17] = tested on: SN12C
[18] = tested on: NCI/ADR-RES
[19] = tested on: MDA-N
[20] = tested on: RPMI-8226
[21] = tested on: TK-10
[22] = tested on: OVCAR-5
[23] = tested on: SNB-75
[24] = tested on: M14
[25] = tested on: LOX IMVI
[26] = tested on: K562
[27] = tested on: OVCAR-3
[28] = tested on: A549
[29] = tested on: SF-268
[30] = tested on: MDA-MB-231
[31] = tested on: COLO 205
[32] = tested on: DU-145
[33] = tested on: SK-MEL-28
[34] = tested on: HCC 2998
[35] = tested on: OVCAR-8
[36] = tested on: MCF7
[37] = tested on: BT-549
[38] = tested on: UACC-62
[39] = tested on: NCI-H460
[40] = tested on: HOP-62
[41] = tested on: HCT-116
[42] = tested on: HL-60
[43] = tested on: HT-29
[44] = tested on: KM12
[45] = tested on: Hs-578T
[46] = tested on: SK-MEL-2
[47] = tested on: SF-295
[48] = tested on: UO-31
[49] = tested on: SNB-19
[50] = tested on: CCRF-CEM
[51] = tested on: PC-3
[52] = tested on: U-251
[53] = tested on: OVCAR-4

c1cc(CSP234N5CCN2CCN3CCN4CC5)ccc1CSP123N4CCN1CCN2CCN3CC4
GI50 [1]: > 100 µM (inactive)
GI50 [2]: > 100 µM (inactive)
GI50 [3]: 91.4 µM (inactive)
GI50 [4]: > 100 µM
GI50 [5]: > 100 µM (inactive)
GI50 [6]: > 100 µM (inactive)
GI50 [7]: > 100 µM (inactive)
GI50 [8]: > 100 µM (inactive)
GI50 [9]: 97.3 µM (inactive)
GI50 [10]: > 100 µM (inactive)
GI50 [11]: > 100 µM (inactive)
GI50 [12]: 92.3 µM (inactive)
GI50 [13]: > 100 µM (inactive)
GI50 [14]: 64.6 µM (inactive)
GI50 [15]: 52 µM (inactive)
GI50 [16]: > 100 µM (inactive)
GI50 [17]: > 100 µM (inactive)
GI50 [18]: > 100 µM (inactive)
GI50 [19]: > 100 µM (inactive)
GI50 [20]: 16.4 µM (inactive)
GI50 [21]: > 100 µM (inactive)
GI50 [22]: > 100 µM (inactive)
GI50 [23]: > 100 µM (inactive)
GI50 [24]: > 100 µM (inactive)
GI50 [25]: 49.1 µM (inactive)
GI50 [26]: < 0.01 µM (active)
GI50 [27]: 76.4 µM (inactive)
GI50 [28]: > 100 µM (inactive)
GI50 [29]: > 100 µM (inactive)
GI50 [30]: 62.7 µM (inactive)
GI50 [31]: > 100 µM (inactive)
GI50 [32]: > 100 µM (inactive)
GI50 [33]: > 100 µM (inactive)
GI50 [34]: > 100 µM (inactive)
GI50 [35]: > 100 µM (inactive)
GI50 [36]: > 100 µM (inactive)
GI50 [37]: > 100 µM (inactive)
GI50 [38]: > 100 µM (inactive)
GI50 [39]: > 100 µM (inactive)
GI50 [40]: > 100 µM (inactive)
GI50 [41]: 72.8 µM (inactive)
GI50 [42]: 0.465 µM (active)
GI50 [43]: 53.2 µM (inactive)
GI50 [44]: > 100 µM (inactive)
GI50 [45]: > 100 µM (inactive)
GI50 [46]: > 100 µM (inactive)
GI50 [47]: > 100 µM (inactive)
GI50 [48]: 99.8 µM (inactive)
GI50 [49]: > 100 µM (inactive)
GI50 [50]: 27.4 µM (inactive)
GI50 [51]: > 100 µM (inactive)
GI50 [52]: 68.5 µM (inactive)
GI50 [53]: > 100 µM (inactive)
